The source of these data is patent US8541588B2, “Sulfonamide derivatives” (Pfizer Limited, priority 2009, dated 2013).

T1 sequence (Q15858 whole entry): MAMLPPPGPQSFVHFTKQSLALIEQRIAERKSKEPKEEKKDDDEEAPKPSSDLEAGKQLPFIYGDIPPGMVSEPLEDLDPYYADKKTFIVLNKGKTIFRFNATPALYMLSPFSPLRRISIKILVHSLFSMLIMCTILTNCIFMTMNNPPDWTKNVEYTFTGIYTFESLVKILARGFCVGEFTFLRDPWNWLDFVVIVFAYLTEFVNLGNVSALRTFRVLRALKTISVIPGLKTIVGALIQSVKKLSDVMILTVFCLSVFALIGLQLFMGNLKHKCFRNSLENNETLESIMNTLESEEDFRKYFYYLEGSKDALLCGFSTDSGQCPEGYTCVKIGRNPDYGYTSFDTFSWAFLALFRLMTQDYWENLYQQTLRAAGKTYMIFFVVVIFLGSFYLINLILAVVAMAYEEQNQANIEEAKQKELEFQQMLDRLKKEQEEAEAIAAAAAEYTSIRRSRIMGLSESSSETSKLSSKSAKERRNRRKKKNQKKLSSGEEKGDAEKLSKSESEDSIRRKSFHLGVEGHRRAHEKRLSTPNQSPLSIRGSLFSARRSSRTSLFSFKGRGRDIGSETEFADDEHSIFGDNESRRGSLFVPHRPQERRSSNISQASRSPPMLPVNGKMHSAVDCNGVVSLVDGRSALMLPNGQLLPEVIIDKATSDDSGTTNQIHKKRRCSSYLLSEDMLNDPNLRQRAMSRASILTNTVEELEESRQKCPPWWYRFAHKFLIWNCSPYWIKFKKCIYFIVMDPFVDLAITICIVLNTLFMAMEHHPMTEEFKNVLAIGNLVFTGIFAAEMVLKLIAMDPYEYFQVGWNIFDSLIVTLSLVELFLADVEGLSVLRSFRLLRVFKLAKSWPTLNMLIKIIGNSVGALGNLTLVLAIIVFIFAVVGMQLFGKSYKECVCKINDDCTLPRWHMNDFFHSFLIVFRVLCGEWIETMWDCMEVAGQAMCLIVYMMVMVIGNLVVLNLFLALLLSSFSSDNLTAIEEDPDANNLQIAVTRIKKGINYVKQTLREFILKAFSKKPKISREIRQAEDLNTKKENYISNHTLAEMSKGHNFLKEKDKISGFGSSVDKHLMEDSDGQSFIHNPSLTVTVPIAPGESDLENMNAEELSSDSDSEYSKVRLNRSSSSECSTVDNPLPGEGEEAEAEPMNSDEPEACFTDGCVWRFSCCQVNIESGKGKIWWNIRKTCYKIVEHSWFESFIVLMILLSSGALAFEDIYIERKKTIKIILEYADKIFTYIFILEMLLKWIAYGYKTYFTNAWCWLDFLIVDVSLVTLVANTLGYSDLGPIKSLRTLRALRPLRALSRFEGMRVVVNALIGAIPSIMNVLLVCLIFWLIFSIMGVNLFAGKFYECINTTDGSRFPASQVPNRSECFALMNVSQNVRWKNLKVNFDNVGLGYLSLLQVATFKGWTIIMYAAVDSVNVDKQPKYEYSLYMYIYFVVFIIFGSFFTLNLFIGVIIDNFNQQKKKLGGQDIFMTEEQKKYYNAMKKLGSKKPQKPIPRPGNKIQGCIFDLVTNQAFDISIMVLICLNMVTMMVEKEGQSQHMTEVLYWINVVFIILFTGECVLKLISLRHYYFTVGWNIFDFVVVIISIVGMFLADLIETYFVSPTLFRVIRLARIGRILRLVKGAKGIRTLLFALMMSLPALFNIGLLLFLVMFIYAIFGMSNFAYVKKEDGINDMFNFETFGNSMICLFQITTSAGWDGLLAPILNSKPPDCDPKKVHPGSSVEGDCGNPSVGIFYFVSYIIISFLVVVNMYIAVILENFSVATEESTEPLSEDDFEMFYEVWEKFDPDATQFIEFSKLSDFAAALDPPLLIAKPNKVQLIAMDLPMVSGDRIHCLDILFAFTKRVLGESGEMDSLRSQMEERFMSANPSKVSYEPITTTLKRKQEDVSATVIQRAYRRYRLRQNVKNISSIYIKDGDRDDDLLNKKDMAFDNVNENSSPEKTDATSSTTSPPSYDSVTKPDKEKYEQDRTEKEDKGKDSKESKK

The test has as its target T1, Nav1.7 (or SCN9A) channel; HEK cells stably transfected with hSCN9A (Homo sapiens, UniProt Q15858).
T1 construct: expressed in transfected cells
Kind of test: Nav1.7 block, PatchXpress 7000 automated whole-cell voltage clamp, estimated IC50 (EIC50). The test is classed as cell-based. The settings on record: estimated IC50; hSCN9A HEK cells, PatchXpress platform; Examples 815-1040.
Usually IC50 stands for the concentration that inhibits the measured activity by half. Consider `N#Cc1cc(S(=O)(=O)Nc2nncs2)ccc1Oc1ccc(Cl)cc1-c1ccnc(N2CCNCC2)c1` [Example 835, 4-[4-chloro-2-(2-piperazin-1-ylpyridin-4-yl)phenoxy]-3-cyano-N-1,3,4-thiadiazol-2-ylbenzenesulfonamide], for which the IC50 is 2.1 nM.

As to `N#Cc1cc(S(=O)(=O)Nc2ncns2)ccc1Oc1ccc(Cl)cc1C1CCOCC1` [Example 836, 4-[4-chloro-2-(tetrahydro-2H-pyran-4-yl)phenoxy]-3-cyano-N-1,2,4-thiadiazol-5-ylbenzenesulfonamide], the IC50 was 40 nM.

As to `O=S(=O)(Nc1ncns1)c1cc(F)c(Oc2ccc(OC(F)F)cc2-c2cn[nH]c2)cc1F` [Example 837, 4-[4-(difluoromethoxy)-2-(1H-pyrazol-4-yl)phenoxy]-2,5-difluoro-N-1,2,4-thiadiazol-5-ylbenzenesulfonamide], the IC50 was 5.8 nM.

For the compound `O=S(=O)(Nc1ncns1)c1cc(F)c(Oc2ccc(Cl)cc2-c2ccnc(CN3CCC3)c2)cc1F` [Example 838, 4-{2-[2-(azetidin-1-ylmethyl)pyridin-4-yl]-4-chlorophenoxy}-2,5-difluoro-N-1,2,4-thiadiazol-5-ylbenzenesulfonamide], the IC50 is 1.8 nM.

Take `N#Cc1cc(S(=O)(=O)Nc2nncs2)ccc1Oc1ccc(Cl)cc1-c1cn[nH]c1` [Example 839, 4-[4-chloro-2-(1H-pyrazol-4-yl)phenoxy]-3-cyano-N-1,3,4-thiadiazol-2-ylbenzenesulfonamide]: the IC50 is 130 nM.

Consider `Nc1cc(-c2cc(F)ccc2Oc2cc(F)c(S(=O)(=O)Nc3ncns3)cc2Cl)[nH]n1` [Example 840, 4-[2-(3-amino-1H-pyrazol-5-yl)-4-fluorophenoxy]-5-chloro-2-fluoro-N-1,2,4-thiadiazol-5-ylbenzenesulfonamide], for which the IC50 was 52 nM.

For the compound `O=S(=O)(Nc1cscn1)c1cc(F)c(Oc2ccc(C(F)(F)F)cc2-c2ccnn2C2CNC2)cc1F` [Example 841, 4-[2-(1-azetidin-3-yl-1H-pyrazol-5-yl)-4-(trifluoromethyl)phenoxy]-2,5-difluoro-N-1,3-thiazol-4-ylbenzenesulfonamide], the IC50 was 11 nM.

Turning to `N#Cc1cc(S(=O)(=O)Nc2ncns2)ccc1Oc1ccc(F)cc1C1CCOCC1` [Example 842, 3-cyano-4-[4-fluoro-2-(tetrahydro-2H-pyran-4-yl)phenoxy]-N-1,2,4-thiadiazol-5-ylbenzenesulfonamide], the IC50 is 96 nM.

Take `O=S(=O)(Nc1nncs1)c1cc(Cl)c(Oc2ccc(Cl)cc2-c2ccnnc2)cc1F` [Example 843, 5-chloro-4-(4-chloro-2-pyridazin-4-ylphenoxy)-2-fluoro-N-1,3,4-thiadiazol-2-ylbenzenesulfonamide]: the IC50 is 34 nM.

Regarding `O=S(=O)(Nc1cscn1)c1cc(Cl)c(Oc2ccc(Cl)cc2-c2ccnnc2)cc1F` [Example 845, 5-chloro-4-(4-chloro-2-pyridazin-4-ylphenoxy)-2-fluoro-N-1,3-thiazol-4-ylbenzenesulfonamide], the IC50 is 41 nM.

As for `O=S(=O)(Nc1ccc(F)cn1)c1cc(F)c(Oc2ccc(Cl)cc2-c2ccnnc2)cc1F` [Example 846, 4-(4-chloro-2-pyridazin-4-ylphenoxy)-2,5-difluoro-N-(5-fluoropyridin-2-yl)benzenesulfonamide], the IC50 was 230 nM.

For `O=S(=O)(Nc1ccncn1)c1ccc(Oc2ccc(Cl)cc2-c2ccnnc2)c(Cl)c1` [Example 847, 3-chloro-4-(4-chloro-2-pyridazin-4-ylphenoxy)-N-pyrimidin-4-ylbenzenesulfonamide], the IC50 was 130 nM.

As to `CCN1CC(n2nccc2-c2cc(F)ccc2Oc2cc(F)c(S(=O)(=O)Nc3ncns3)cc2Cl)C1` [Example 848, 5-chloro-4-{2-[1-(1-ethylazetidin-3-yl)-1H-pyrazol-5-yl]-4-fluorophenoxy}-2-fluoro-N-1,2,4-thiadiazol-5-ylbenzenesulfonamide], the IC50 is 5.1 nM.

`Nc1nccc(-c2cc(Cl)ccc2Oc2cc(F)c(S(=O)(=O)Nc3ncns3)cc2F)n1` [Example 849, 4-[2-(2-aminopyrimidin-4-yl)-4-chlorophenoxy]-2,5-difluoro-N-1,2,4-thiadiazol-5-ylbenzenesulfonamide]: the IC50 is 120 nM.

Take `N#Cc1ccc(Oc2cc(F)c(S(=O)(=O)Nc3ncns3)cc2Cl)c(-c2cn[nH]c2)c1` [Example 850, 5-chloro-4-[4-cyano-2-(1H-pyrazol-4-yl)phenoxy]-2-fluoro-N-1,2,4-thiadiazol-5-ylbenzenesulfonamide]: the IC50 is 3.2 nM.

Turning to `N#Cc1cc(S(=O)(=O)Nc2ncns2)ccc1Oc1ccc(Cl)cc1-c1cccc(CN2CCC2)c1` [Example 852, 4-{[3′-(azetidin-1-ylmethyl)-5-chlorobiphenyl-2-yl]oxy}-3-cyano-N-1,2,4-thiadiazol-5-ylbenzenesulfonamide], the IC50 was 1.6 nM.

Regarding `N#Cc1ccc(-c2cc(Cl)ccc2Oc2ccc(S(=O)(=O)Nc3ncns3)cc2C#N)nc1` [Example 853, 4-[4-chloro-2-(5-cyanopyridin-2-yl)phenoxy]-3-cyano-N-1,2,4-thiadiazol-5-ylbenzenesulfonamide], the IC50 is 740 nM.

On to `N#Cc1cc(S(=O)(=O)Nc2ncns2)ccc1Oc1ccc(Cl)cc1-c1cccc(C(=O)N2CCC2)c1` [Example 854, 4-{[3′-(azetidin-1-ylcarbonyl)-5-chlorobiphenyl-2-yl]oxy}-3-cyano-N-1,2,4-thiadiazol-5-ylbenzenesulfonamide], for which the IC50 was 6.4 nM.

In the case of `O=C(c1cccc(-c2cc(Cl)ccc2Oc2cc(F)c(S(=O)(=O)Nc3ncns3)cc2F)c1)N1CCC1` [Example 855, 4-{[3′-(azetidin-1-ylcarbonyl)-5-chlorobiphenyl-2-yl]oxy}-2,5-difluoro-N-1,2,4-thiadiazol-5-ylbenzenesulfonamide], the concentration for half-maximal inhibition (IC50) was 4.2 nM.

As for `O=C(c1cccc(-c2cc(Cl)ccc2Oc2cc(F)c(S(=O)(=O)Nc3cscn3)cc2Cl)c1)N1CCC1` [Example 856, 4-{[3′-(azetidin-1-ylcarbonyl)-5-chlorobiphenyl-2-yl]oxy}-5-chloro-2-fluoro-N-1,3-thiazol-4-ylbenzenesulfonamide], the IC50 is 22 nM.

With `O=C(c1cccc(-c2cc(Cl)ccc2Oc2cc(F)c(S(=O)(=O)Nc3nncs3)cc2Cl)c1)N1CCC1` [Example 857, 4-{[3′-(azetidin-1-ylcarbonyl)-5-chlorobiphenyl-2-yl]oxy}-5-chloro-2-fluoro-N-1,3,4-thiadiazol-2-ylbenzenesulfonamide], the IC50 was 14 nM.

Regarding `O=C(c1cccc(-c2cc(Cl)ccc2Oc2ccc(S(=O)(=O)Nc3ccncn3)cc2Cl)c1)N1CCC1` [Example 858, 4-{[3′-(azetidin-1-ylcarbonyl)-5-chlorobiphenyl-2-yl]oxy}-3-chloro-N-pyrimidin-4-ylbenzenesulfonamide], the IC50 is 17 nM.

As to `O=C(c1cccc(-c2cc(Cl)ccc2Oc2cc(F)c(S(=O)(=O)Nc3ncns3)cc2Cl)n1)N1CCC1` [Example 859, 4-{2-[6-(azetidin-1-ylcarbonyl)pyridin-2-yl]-4-chlorophenoxy}-5-chloro-2-fluoro-N-1,2,4-thiadiazol-5-ylbenzenesulfonamide], the half-inhibitory concentration (IC50) is 4.4 nM.

Take `CN(C)c1n[nH]cc1-c1cc(Cl)ccc1Oc1cc(F)c(S(=O)(=O)Nc2cscn2)cc1Cl` [Example 860, 5-chloro-4-{4-chloro-2-[3-(dimethylamino)-1H-pyrazol-4-yl]phenoxy}-2-fluoro-N-1,3-thiazol-4-ylbenzenesulfonamide]: the IC50 is 170 nM.

For the compound `CC(C)N1CC(n2nccc2-c2cc(Cl)ccc2Oc2ccc(S(=O)(=O)Nc3cscn3)cc2C#N)C1` [Example 861, 4-{4-chloro-2-[1-(1-isopropylazetidin-3-yl)-1H-pyrazol-5-yl]phenoxy}-3-cyano-N-1,3-thiazol-4-ylbenzenesulfonamide], the IC50 was 14 nM.

In the case of `Cn1nccc1-c1cc(Cl)ccc1Oc1ccc(S(=O)(=O)Nc2cccnn2)cc1Cl` [Example 862, 3-chloro-4-[4-chloro-2-(1-methyl-1H-pyrazol-5-yl)phenoxy]-N-pyridazin-3-ylbenzenesulfonamide], the IC50 is 240 nM.

For `Cc1[nH]ncc1-c1cc(Cl)c(F)cc1Oc1ccc(S(=O)(=O)Nc2ncns2)cc1C#N` [Example 863, 4-[4-chloro-5-fluoro-2-(5-methyl-1H-pyrazol-4-yl)phenoxy]-3-cyano-N-1,2,4-thiadiazol-5-ylbenzenesulfonamide], the IC50 is 3.1 nM.

As for `N#Cc1cc(S(=O)(=O)Nc2ncns2)ccc1Oc1ccc(Cl)cc1-c1cccc(C(=O)NC2CC2)c1` [Example 864, 5′-chloro-2′-{2-cyano-4-[(1,2,4-thiadiazol-5-ylamino)sulfonyl]phenoxy}-N-cyclopropylbiphenyl-3-carboxamide], the IC50 was 4.4 nM.

Consider `Cc1[nH]ncc1-c1cc(Cl)ccc1Oc1ccc(S(=O)(=O)Nc2ncns2)cc1C#N` [Example 865, 4-[4-chloro-2-(5-methyl-1H-pyrazol-4-yl)phenoxy]-3-cyano-N-1,2,4-thiadiazol-5-ylbenzenesulfonamide], for which the IC50 is 4.4 nM.

Regarding `O=S1(=O)CCC(n2nccc2-c2cc(Cl)ccc2Oc2cc(F)c(S(=O)(=O)Nc3ncns3)cc2F)C1` (stereo not drawn) [Example 866, 4-{4-chloro-2-[1-(1,1-dioxidotetrahydro-3-thienyl)-1H-pyrazol-5-yl]phenoxy}-2,5-difluoro-N-1,2,4-thiadiazol-5-ylbenzenesulfonamide], the IC50 is 14 nM.

For the compound `N#Cc1cc(S(=O)(=O)Nc2ncns2)ccc1Oc1ccc(Cl)cc1-c1cccc(CN2CC(CO)(CO)C2)c1` [Example 867, 4-[(3′-{[3,3-bis(hydroxymethyl)azetidin-1-yl]methyl}-5-chlorobiphenyl-2-yl)oxy]-3-cyano-N-1,2,4-thiadiazol-5-ylbenzenesulfonamide], the IC50 was 1.4 nM.

Regarding `N#Cc1cc(S(=O)(=O)Nc2ncns2)ccc1Oc1ccc(Cl)cc1-c1ccnnc1` [Example 868, 4-(4-chloro-2-pyridazin-4-ylphenoxy)-3-cyano-N-1,2,4-thiadiazol-5-ylbenzenesulfonamide], the IC50 is 15 nM.

Consider `O=S(=O)(Nc1cccnn1)c1ccc(Oc2ccc(Cl)cc2-c2ccnnc2)c(Cl)c1` [Example 869, 3-chloro-4-(4-chloro-2-pyridazin-4-ylphenoxy)-N-pyridazin-3-ylbenzenesulfonamide], for which the IC50 is 540 nM.
